From patent US9023789B2, “Amylin analogs and pharmaceutical compositions thereof” (Novo Nordisk A/S, priority 2012, dated 2015)
Numbered stars: 1 amine (or outer) side, 2 acyl side, 3 side chain; on linkers, the order of the positions; unused ones are H or OH. Bridge positions count the residues as written; N and C are the ends. Side chains are listed from the residue outwards. Peptide text beside a SMILES is read from it. * marks the point of attachment. C20 diacid = O=C(O)CCCCCCCCCCCCCCCCCCC(=O)*; γGlu = O=C(O)[C@H](CCC(=O)[*:2])N[*:1]; AEEA = NCCOCCOCC(=O)O

Key:
[1] = molecular target: T1, human amylin 3(a) receptor (human calcitonin receptor + RAMP-3) in BHK570 cells (Homo sapiens, UniProt O60896+P30988); assay: ASSAY (II)a functional assay, human amylin receptor (CRE luciferase); assay type: cell-based
T1 construct: expressed in transfected cells
In short: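 Cells were seeded and cultured overnight, then incubated with standard or sample for 3 h at 37° C in serum-containing medium at pH 7.4. The medium was then swapped for PBS, LucLite was added for 30 min at room temperature, and luminescence was recorded. Cells were BHK with CRE-luc and calcitonin receptor, ± RAMP-3.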

[2] = ASSAY (III) ThT fibrillation assay for physical stability; assay type: physicochemical
In short: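 Formulations with 1 μM ThT, pH adjusted as required, incubated at 37 °C with 960 rpm orbital shaking; fluorescence (ex 444/em 485 nm) read every 20 min. Fibrillation reported as mean ThT fluorescence ± SD of 4–8 replicates at time points; polypeptide concentration measured by reverse-phase HPLC before and after, post-centrifugation.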

[3] = hCTR funct. EC50 divided by hAmylin-R funct. EC50
[4] = hCTR funct. EC50 over hAmylin-R funct. EC50
[5] = human functional selectivity: hCTR funct. EC50 / hAmylin-R funct. EC50

T1 sequence (O60896 24-148): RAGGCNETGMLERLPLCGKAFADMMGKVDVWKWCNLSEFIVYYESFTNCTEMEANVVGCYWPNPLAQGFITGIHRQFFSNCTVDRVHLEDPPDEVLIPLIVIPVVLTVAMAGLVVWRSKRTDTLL
T1 sequence (P30988 25-474): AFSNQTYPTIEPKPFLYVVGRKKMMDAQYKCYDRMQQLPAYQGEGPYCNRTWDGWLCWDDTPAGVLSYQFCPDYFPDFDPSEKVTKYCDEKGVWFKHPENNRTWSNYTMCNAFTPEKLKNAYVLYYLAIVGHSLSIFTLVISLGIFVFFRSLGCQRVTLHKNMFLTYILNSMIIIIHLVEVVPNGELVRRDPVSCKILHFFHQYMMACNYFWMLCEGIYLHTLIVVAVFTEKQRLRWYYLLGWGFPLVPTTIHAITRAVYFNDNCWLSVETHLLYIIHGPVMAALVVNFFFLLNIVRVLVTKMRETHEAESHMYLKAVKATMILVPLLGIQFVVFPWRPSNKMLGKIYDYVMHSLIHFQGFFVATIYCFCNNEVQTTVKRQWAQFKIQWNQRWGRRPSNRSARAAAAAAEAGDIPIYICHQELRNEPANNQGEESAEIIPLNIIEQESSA

| SMILES | Ratio hCT/hAmylin funct. [1, 3] | Ratio hCT/hAmylin funct. [1, 4] | Ratio hCT/hAmylin funct. [1, 5] | ThT pH 4.0 lag time (h) [2] | Ratio hCT/hAmylin funct. ([1]; hCTR funct. EC50 / hAmylin-R funct. EC50) |
| --- | --- | --- | --- | --- | --- |
| CC[C@H](C)[C@H](NC(=O)[C@H](C)NC(=O)CNC(=O)[C@H](Cc1ccccc1)NC(=O)[C@H](CC(N)=O)NC(=O)[C@@H]1CCCN1C(=O)[C@H](CO)NC(=O)[C@H](CO)NC(=O)[C@H](Cc1c[nH]cn1)NC(=O)[C@H](CCCNC(=N)N)NC(=O)[C@H](CC(C)C)NC(=O)[C@H](Cc1ccccc1)NC(=O)[C@H](CCC(=O)O)NC(=O)[C@H](C)NC(=O)[C@H](CC(C)C)NC(=O)[C@H](CCCNC(=N)N)NC(=O)[C@H](CCC(N)=O)NC(=O)[C@@H](NC(=O)[C@H](C)NC(=O)[C@@H]1CSSC[C@H](NC(=O)[C@H](CCCCN)NC(=O)COCCOCCNC(=O)COCCOCCNC(=O)CC[C@H](NC(=O)CCCCCCCCCCCCCCCCCCC(=O)O)C(=O)O)C(=O)N[C@@H](CC(N)=O)C(=O)N[C@@H]([C@@H](C)O)C(=O)N[C@@H](C)C(=O)N[C@@H]([C@@H](C)O)C(=O)N1)[C@@H](C)O)C(=O)N1CCC[C@H]1C(=O)N[C@@H](CO)C(=O)N[C@@H](CO)C(=O)N[C@H](C(=O)N[C@@H](CC(N)=O)C(=O)N[C@H](C(=O)NCC(=O)N[C@@H](CO)C(=O)N[C@@H](CC(N)=O)C(=O)N[C@H](C(=O)N[C@@H](Cc1ccc(O)cc1)C(N)=O)[C@@H](C)O)C(C)C)[C@@H](C)O [Example 19] | 17.4 | 17.4 | 17.4 | 9 h | – |
| CC[C@H](C)[C@H](NC(=O)[C@H](C)NC(=O)CNC(=O)[C@H](Cc1ccccc1)NC(=O)[C@H](CC(N)=O)NC(=O)[C@@H]1CCCN1C(=O)[C@H](CO)NC(=O)[C@H](CO)NC(=O)[C@H](Cc1c[nH]cn1)NC(=O)[C@H](CCCNC(=N)N)NC(=O)[C@H](CC(C)C)NC(=O)[C@H](Cc1ccccc1)NC(=O)[C@H](CCC(=O)O)NC(=O)[C@H](C)NC(=O)[C@H](CC(C)C)NC(=O)[C@H](CCCNC(=N)N)NC(=O)[C@H](CCC(N)=O)NC(=O)[C@@H](NC(=O)[C@H](C)NC(=O)[C@@H]1CSSC[C@H](NC(=O)[C@@H](N)CCCCNC(=O)CC[C@H](NC(=O)CCCCCCCCCCCCCCCCCCC(=O)O)C(=O)O)C(=O)N[C@@H](CC(N)=O)C(=O)N[C@@H]([C@@H](C)O)C(=O)N[C@@H](C)C(=O)N[C@@H]([C@@H](C)O)C(=O)N1)[C@@H](C)O)C(=O)N1CCC[C@H]1C(=O)N[C@@H](CO)C(=O)N[C@@H](CO)C(=O)N[C@H](C(=O)N[C@@H](CC(N)=O)C(=O)N[C@H](C(=O)NCC(=O)N1CCC[C@H]1C(=O)N[C@@H](CC(N)=O)C(=O)N[C@H](C(=O)N1CCC[C@H]1C(N)=O)[C@@H](C)O)C(C)C)[C@@H](C)O [Example 114] (H-K([γGlu-C20 diacid])CNTATCATQRLAEFLRHSSPNFGAIPSSTNVGPNTP-NH2; disulfide 2-7 (inferred); N-terminus assumed) | 0.9 | 0.9 | 0.9 | 45 h | 0.9 |
| CC[C@H](C)[C@H](NC(=O)[C@H](C)NC(=O)CNC(=O)[C@H](Cc1ccccc1)NC(=O)[C@H](CC(N)=O)NC(=O)[C@@H]1CCCN1C(=O)[C@H](CO)NC(=O)[C@H](CO)NC(=O)[C@H](Cc1c[nH]cn1)NC(=O)[C@H](CCCNC(=N)N)NC(=O)[C@H](CC(C)C)NC(=O)[C@H](Cc1ccccc1)NC(=O)[C@H](CC(N)=O)NC(=O)[C@H](C)NC(=O)[C@H](CC(C)C)NC(=O)[C@H](CCCNC(=N)N)NC(=O)[C@H](CCC(N)=O)NC(=O)[C@@H](NC(=O)[C@H](C)NC(=O)[C@@H]1CSSC[C@H](NC(=O)[C@H](CCCNC(=N)N)NC(=O)[C@@H](N)CCCCNC(=O)COCCOCCNC(=O)CC[C@H](NC(=O)CCCCCCCCCCCCCCCCCCC(=O)O)C(=O)O)C(=O)N[C@@H](CC(N)=O)C(=O)N[C@@H]([C@@H](C)O)C(=O)N[C@@H](C)C(=O)N[C@@H]([C@@H](C)O)C(=O)N1)[C@@H](C)O)C(=O)N1CCC[C@H]1C(=O)N[C@@H](CO)C(=O)N[C@@H](CO)C(=O)N[C@H](C(=O)N[C@@H](CC(N)=O)C(=O)N[C@H](C(=O)NCC(=O)N[C@@H](CO)C(=O)N[C@@H](Cc1c[nH]cn1)C(=O)N[C@H](C(=O)N[C@@H](Cc1ccc(O)cc1)C(N)=O)[C@@H](C)O)C(C)C)[C@@H](C)O [Example 45] (H-K([AEEA-γGlu-C20 diacid])RCNTATCATQRLANFLRHSSPNFGAIPSSTNVGSHTY-NH2; disulfide 3-8 (inferred)) | 17.0 | 17.0 | 17.0 | 45 h | – |

The remaining lines, values ahead:

| Ratio hCT/hAmylin funct. [1, 3] | Ratio hCT/hAmylin funct. [1, 4] | Ratio hCT/hAmylin funct. [1, 5] | ThT pH 4.0 lag time (h) [2] | Ratio hCT/hAmylin funct. ([1]; hCTR funct. EC50 / hAmylin-R funct. EC50) | SMILES |
| --- | --- | --- | --- | --- | --- |
| 12.6 | 12.6 | 12.6 | 16 h | – | CC[C@H](C)[C@H](NC(=O)[C@H](C)NC(=O)CNC(=O)[C@H](Cc1ccccc1)NC(=O)[C@H](CC(N)=O)NC(=O)[C@@H]1CCCN1C(=O)[C@H](CO)NC(=O)[C@H](CO)NC(=O)[C@H](Cc1c[nH]cn1)NC(=O)[C@H](CCCNC(=N)N)NC(=O)[C@H](CC(C)C)NC(=O)[C@H](Cc1ccccc1)NC(=O)[C@H](Cc1c[nH]cn1)NC(=O)[C@H](C)NC(=O)[C@H](CC(C)C)NC(=O)[C@H](CCCNC(=N)N)NC(=O)[C@H](CCC(N)=O)NC(=O)[C@@H](NC(=O)[C@H](C)NC(=O)[C@@H]1CSSC[C@H](NC(=O)[C@H](CCCCN)NC(=O)CC[C@H](NC(=O)CCCCCCCCCCCCCCCCCCC(=O)O)C(=O)O)C(=O)N[C@@H](CC(N)=O)C(=O)N[C@@H]([C@@H](C)O)C(=O)N[C@@H](C)C(=O)N[C@@H]([C@@H](C)O)C(=O)N1)[C@@H](C)O)C(=O)N1CCC[C@H]1C(=O)N[C@@H](CO)C(=O)N[C@@H](CO)C(=O)N[C@H](C(=O)N[C@@H](CC(N)=O)C(=O)N[C@H](C(=O)NCC(=O)N[C@@H](CO)C(=O)N[C@@H](CCC(=O)O)C(=O)N[C@H](C(=O)N[C@@H](Cc1ccc(O)cc1)C(N)=O)[C@@H](C)O)C(C)C)[C@@H](C)O [Example 30] ({C20 diacid-γGlu}-KCNTATCATQRLAHFLRHSSPNFGAIPSSTNVGSETY-NH2; disulfide 2-7) |
| 22.6 | 22.6 | 22.6 | 28 h | – | CC[C@H](C)[C@H](NC(=O)[C@H](C)NC(=O)CNC(=O)[C@H](Cc1ccccc1)NC(=O)[C@H](CC(N)=O)NC(=O)[C@@H]1CCCN1C(=O)[C@H](CO)NC(=O)[C@H](CO)NC(=O)[C@H](Cc1c[nH]cn1)NC(=O)[C@H](CCCNC(=N)N)NC(=O)[C@H](CC(C)C)NC(=O)[C@H](Cc1ccccc1)NC(=O)[C@H](CC(N)=O)NC(=O)[C@H](C)NC(=O)[C@H](CC(C)C)NC(=O)[C@H](CCCNC(=N)N)NC(=O)[C@H](CCC(N)=O)NC(=O)[C@@H](NC(=O)[C@H](C)NC(=O)[C@@H]1CSSC[C@H](NC(=O)[C@@H](N)CCCCNC(=O)CC[C@H](NC(=O)CCCCCCCCCCCCCCCCCCC(=O)O)C(=O)O)C(=O)N[C@@H](CC(N)=O)C(=O)N[C@@H]([C@@H](C)O)C(=O)N[C@@H](C)C(=O)N[C@@H]([C@@H](C)O)C(=O)N1)[C@@H](C)O)C(=O)N1CCC[C@H]1C(=O)N[C@@H](CO)C(=O)N[C@@H](CO)C(=O)N[C@H](C(=O)N[C@@H](CC(N)=O)C(=O)N[C@H](C(=O)NCC(=O)N[C@@H](CO)C(=O)N[C@@H](CCC(=O)O)C(=O)N[C@H](C(=O)N[C@@H](Cc1ccc(O)cc1)C(N)=O)[C@@H](C)O)C(C)C)[C@@H](C)O [Example 27] |
| 13.1 | 13.1 | 13.1 | 41 h | – | CC[C@H](C)[C@H](NC(=O)[C@H](C)NC(=O)CNC(=O)[C@H](Cc1ccccc1)NC(=O)[C@H](CC(N)=O)NC(=O)[C@@H]1CCCN1C(=O)[C@H](CO)NC(=O)[C@H](CO)NC(=O)[C@H](Cc1c[nH]cn1)NC(=O)[C@H](CCCNC(=N)N)NC(=O)[C@H](CC(C)C)NC(=O)[C@H](Cc1ccccc1)NC(=O)[C@H](CCC(=O)O)NC(=O)[C@H](C)NC(=O)[C@H](CC(C)C)NC(=O)[C@H](CCCNC(=N)N)NC(=O)[C@H](CCC(N)=O)NC(=O)[C@@H](NC(=O)[C@H](C)NC(=O)[C@@H]1CSSC[C@H](NC(=O)[C@@H](N)CCCCNC(=O)CC[C@H](NC(=O)CCCCCCCCCCCCCCCCCCC(=O)O)C(=O)O)C(=O)N[C@@H](CC(N)=O)C(=O)N[C@@H]([C@@H](C)O)C(=O)N[C@@H](C)C(=O)N[C@@H]([C@@H](C)O)C(=O)N1)[C@@H](C)O)C(=O)N1CCC[C@H]1C(=O)N[C@@H](CO)C(=O)N[C@@H](CO)C(=O)N[C@H](C(=O)N[C@@H](CC(N)=O)C(=O)N[C@H](C(=O)NCC(=O)N[C@@H](CO)C(=O)N[C@@H](Cc1c[nH]cn1)C(=O)N[C@H](C(=O)N[C@@H](Cc1ccc(O)cc1)C(N)=O)[C@@H](C)O)C(C)C)[C@@H](C)O [Example 128] (H-K([γGlu-C20 diacid])CNTATCATQRLAEFLRHSSPNFGAIPSSTNVGSHTY-NH2; disulfide 2-7 (inferred); N-terminus assumed) |
